From US20210247386A1, “A DEVICE AND METHOD FOR DETERMINING CELL INDENTATION ACTIVITY” (TECHNION RESEARCH & DEVELOPMENT FOUNDATION LIMITED, priority 2018, published 2021)
“Also recorded” adds a separate entry of the source.

What was measured:
breast cancer cell lines = test: Gel indentation assay of breast cancer cell lines on PAM gel after Taxol treatment; format: cell-based, human; details: Taxol 25 μM for 1-2 hr, PAM gel with Young's modulus 2.4 kPa, versus untreated cells
Excerpt: (§1) The inventors used various commercially- or otherwise-available, human, epithelial breast and pancreatic cancer and benign cell lines (all from ATCC, Manassas, Va.). For breast cancer cells, the inventors used three cell lines: high metastatic potential (MP, MDA-MB-231) and low MP (MDA-MB-468) breast cancer cells that had been collected from lung metastases, and benign fibrocystic cells (MCF-10A) as control. In addition, the inventors used a high MP breast cancer LM2-4 cell-line that was developed by collecting twice metastasized cells from the human MDA-MB-231 cell line after being seeded in mice. […]
(§2) The inventors seeded 3×10^5 cells on each gel within the respective media, resulting in an average of 25±5 cells per field-of-view (area of 0.016 mm^2). […] The focal depth of each image was recorded independently during the experiment, following manual focusing, using an automated, computer-controlled microscope stage. […]
(§3) At each measurement time-point, locations on the gel were randomly chosen and at least 3 images were taken: (i) a DIC image of the cells on the gel, (ii) a fluorescence image of the particles embedded at the focal plane of the gel surface, and (iii) a series of fluorescence images at the lowest focal depth where particles were observed, to identify each indenting cells' depth. […]

[1] = tested on: pancreatic cancer cell lines; test: Gel indentation assay of pancreatic cancer cell lines on PAM gel after Taxol treatment; format: cell-based, human; details: Taxol 25 μM for 1-2 hr, PAM gel with Young's modulus 2.4 kPa, versus untreated cells
Excerpt: as §1, §2, §3

CC(=O)O[C@H]1C(=O)[C@@]2(C)[C@H]([C@H](OC(=O)c3ccccc3)[C@]3(O)C[C@H](OC(=O)[C@H](O)[C@@H](NC(=O)c4ccccc4)c4ccccc4)C(C)=C1C3(C)C)[C@]1(OC(C)=O)CO[C@@H]1C[C@@H]2O [Taxol, Paclitaxel]
reduction; also recorded: reduced: attained indentation depths (breast cancer cell lines) | percentage of indenting cells (breast cancer cell lines) | attained indentation depths [1] | percentage of indenting cells [1]
